Legend:
[1] = biological target: IsdH NEAT3 (Staphylococcus aureus, UniProt Q931P4); test: biochemical
[2] = biological target: IsdH linker-NEAT3 (Staphylococcus aureus, UniProt Q931P4); test: biochemical
IsdH linker-NEAT3, sequence (Q931P4 486-664): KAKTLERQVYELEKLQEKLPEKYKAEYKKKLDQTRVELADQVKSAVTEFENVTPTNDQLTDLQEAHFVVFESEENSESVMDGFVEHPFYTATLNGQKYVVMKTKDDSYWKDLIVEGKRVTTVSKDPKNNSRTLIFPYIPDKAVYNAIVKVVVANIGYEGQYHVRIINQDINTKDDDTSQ

IsdH NEAT3, sequence (Q931P4 539-664): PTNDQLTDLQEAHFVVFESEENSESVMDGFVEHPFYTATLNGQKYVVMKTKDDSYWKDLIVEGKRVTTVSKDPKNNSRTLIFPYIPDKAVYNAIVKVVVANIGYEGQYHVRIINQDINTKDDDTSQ

C=CC1=C(C)C2=Cc3c(C=C)c(C)c4[n]3[Fe]([Cl])[n]3c(c(C)c(CCC(=O)O)c3=CC3=NC(=C4)C(C)=C3CCC(=O)O)=CC1=N2 [heme]
Kd [1]: 1.05 ± 0.15 nM | Kd [2]: 0.51 ± 0.16 nM

From publication PMC9163592 (The Journal of Biological Chemistry, 2022)
